{
  "source": "ChEMBL document CHEMBL1123961",
  "about": "(J Med Chem, 1988)",
  "key": {"[1]": {"target": "Serotonin receptor 2a and 2c (5HT2A and 5HT2C) (Rattus norvegicus) (UniProt P08909+P14842)", "sequence (P08909 whole entry, looked up)": "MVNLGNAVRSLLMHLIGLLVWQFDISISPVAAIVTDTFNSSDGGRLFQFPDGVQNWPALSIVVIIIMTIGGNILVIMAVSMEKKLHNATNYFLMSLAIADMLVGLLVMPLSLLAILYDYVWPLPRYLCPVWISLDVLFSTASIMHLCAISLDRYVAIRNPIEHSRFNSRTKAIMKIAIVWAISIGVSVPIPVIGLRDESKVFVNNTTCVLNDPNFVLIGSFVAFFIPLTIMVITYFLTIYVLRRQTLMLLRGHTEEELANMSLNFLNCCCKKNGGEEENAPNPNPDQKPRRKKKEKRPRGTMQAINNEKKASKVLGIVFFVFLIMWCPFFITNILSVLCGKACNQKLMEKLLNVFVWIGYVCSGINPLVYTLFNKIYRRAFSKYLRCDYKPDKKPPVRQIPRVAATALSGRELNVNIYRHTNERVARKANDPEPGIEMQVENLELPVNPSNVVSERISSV", "sequence (P14842 whole entry, looked up)": "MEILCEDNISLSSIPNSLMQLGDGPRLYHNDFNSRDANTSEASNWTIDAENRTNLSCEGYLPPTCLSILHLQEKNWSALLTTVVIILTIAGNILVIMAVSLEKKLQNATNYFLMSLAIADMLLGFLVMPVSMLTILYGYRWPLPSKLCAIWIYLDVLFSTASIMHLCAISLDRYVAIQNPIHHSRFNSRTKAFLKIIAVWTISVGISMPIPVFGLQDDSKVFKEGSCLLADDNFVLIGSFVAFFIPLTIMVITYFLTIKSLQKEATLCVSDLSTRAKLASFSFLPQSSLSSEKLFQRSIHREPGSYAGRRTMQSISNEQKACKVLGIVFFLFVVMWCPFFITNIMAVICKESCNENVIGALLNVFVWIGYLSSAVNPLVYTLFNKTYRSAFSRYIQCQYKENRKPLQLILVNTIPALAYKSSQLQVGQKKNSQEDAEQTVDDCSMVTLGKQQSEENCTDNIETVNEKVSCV", "description": "Hill coefficient of compound was determined"}, "[2]": {"target": "T1, Serotonin receptor 2a and 2c (5HT2A and 5HT2C) (Rattus norvegicus, UniProt P08909+P14842)", "assay": "Binding affinity at 5-hydroxytryptamine 2 receptor determined using [125I]- DOI as radioligand in rat frontal cortex", "assay_type": "tissue-based"}, "[3]": {"target": "T1, Serotonin receptor 2a and 2c (5HT2A and 5HT2C)", "assay": "Binding affinity at [3H]DOB labeled sites of 5-hydroxytryptamine 2 receptor determined using [125I]- DOI as radioligand in rat frontal cortex", "assay_type": "tissue-based"}, "[4]": {"target": "T1, Serotonin receptor 2a and 2c (5HT2A and 5HT2C)", "assay": "Binding affinity at [3H]KET labeled sites of 5-hydroxytryptamine 2 receptor determined using [125I]- DOI as radioligand in rat frontal cortex", "assay_type": "tissue-based"}, "[5]": {"target": "T1, Serotonin receptor 2a and 2c (5HT2A and 5HT2C)", "assay": "Binding affinity at [3H]DOB labeled sites of 5-hydroxytryptamine 2 receptor was determined using [125I]- DOI as radioligand in rat frontal cortex", "assay_type": "tissue-based"}, "[6]": {"target": "T1, Serotonin receptor 2a and 2c (5HT2A and 5HT2C)", "assay": "Binding affinity at [3H]KET labeled sites of 5-hydroxytryptamine 2 receptor was determined using [125I]- DOI as radioligand in rat frontal cortex", "assay_type": "tissue-based"}},
  "data": [
    {"smiles": "COc1cc(C[C@@H](C)N)c(OC)cc1Br", "values": [
      {"measurement": "nH", "setting": "[1]", "value": 0.84}
    ]},
    {"smiles": "NCCc1c[nH]c2ccc(O)cc12", "values": [
      {"measurement": "nH", "setting": "[1]", "value": 0.9}
    ]},
    {"smiles": "O=C(CCCN1CCC2(CC1)C(=O)NCN2c1ccccc1)c1ccc(F)cc1", "values": [
      {"measurement": "nH", "setting": "[1]", "value": 0.75}
    ]},
    {"smiles": "O=C(c1ccc(F)cc1)C1CCN(CCn2c(=O)[nH]c3ccccc3c2=O)CC1", "values": [
      {"measurement": "nH", "setting": "[1]", "value": 0.87}
    ]},
    {"smiles": "COc1cc(CC(C)N)c(OC)cc1I", "note": "(racemic)", "values": [
      {"measurement": "Ki", "setting": "[2]", "value": 2.8, "unit": "nM"},
      {"measurement": "Ki", "setting": "[3]", "value": 0.7, "unit": "nM"},
      {"measurement": "Ki", "setting": "[4]", "value": 20, "unit": "nM"},
      {"measurement": "nH", "setting": "[1]", "value": 0.89}
    ]},
    {"smiles": "CN(C)CCCSc1ccccc1NC(=O)/C=C/c1ccccc1", "note": "[CINANSERIN]", "values": [
      {"measurement": "Ki", "setting": "[2]", "value": 5, "unit": "nM"},
      {"measurement": "Ki", "setting": "[5]", "value": 3.8, "unit": "nM"},
      {"measurement": "Ki", "setting": "[6]", "value": 4.5, "unit": "nM"},
      {"measurement": "nH", "setting": "[1]", "value": 0.76}
    ]}
  ]
}
